According to US12636368B2, “Ionizable lipids for nucleic acid delivery” (Global Life Sciences Solutions Canada ULC, priority 2019, dated 2026):
Read-outs that look alike come from different tables or passages of the source.

Legend:
[1] = TNS assay, surface pKa of lipid nanoparticles; type: physicochemical
How it was run: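 Empty LNPs containing the ionizable lipid (LM02 composition, 0.781 mM total lipid before mixing) were combined with TNS in 10 mM HEPES, 10 mM MES, 10 mM NH4OAc, 130 mM NaCl buffers at pH 3–9 in 0.5 steps. Fluorescence was read at room temperature (ex 321/em 445 nm); pKa was taken as the pH of half-maximal intensity from a sigmoidal fit.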

[2] = LNP size and PDI by dynamic light scattering; type: physicochemical
How it was run: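 Hydrodynamic diameter measured by DLS with a 633 nm He/Ne laser in backscatter mode (173°), averaging 10 runs of two cycles per sample. Size reported as Z-average (harmonic intensity-averaged diameter), with polydispersity given as PDI.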

[3] = Nucleic acid encapsulation efficiency by RiboGreen assay; type: physicochemical
[4] = test system: isolated primary human T cells; test: GFP mRNA-LNP transfection of primary human T cells, flow cytometry; type: cell-based; conditions: for amount of protein produced (MFI) in human T cells compared with MC3: summary; for protein expression (GFP MFI) compared with MC3: FIG. 5, CT10, N/P 8, 500 ng mRNA per 125,000 cells, 3 days after activation, 48 h
Procedure: Reagents were from Stemcell Technologies unless otherwise stated. Tcells were isolated from a single donor. At 48 h following lipid particle mRNA exposure, the treated T cells were harvested by transferring the cell suspensions to pre-labeled 1.5 mL tubes and centrifuged 300×g at 4 degrees C. for 10 minutes. Supernatant was removed and the pellet resuspended in PBS. An amount of 0.5 ul of BD Horizon™ Fixable Viability Stain 575V™ (BD Biosciences), was added, and the mixture incubated in the dark for 10 minutes at RT. This stain binds to amines.
The cells were centrifuged again as before, then washed twice with 1 mL of stain buffer (BSA, BD Pharminigen), and the washed pellet was diluted in 100 μl BSA. The following antibodies were added to each tube of treated cells in 2 μl volumes: CD25, CD8, CD4, (PerCP-Cy™ 5.5 Mouse Anti Human CD25, BV786 Mouse Anti-Human CD8 Clone RPA-T8, APC-Cy™7 Mouse Anti-Human CD4 Clone SK3 (all from BD Pharmingen) with the exception of the controls: in the eGFP only sample and viability control, no antibody was added. In the single stain compensation tubes, only one antibody per tube was added.
The tubes were incubated at 4 degrees C. for 30 min, whereupon […] of stain buffer was added, and the cells were centrifuged again. Cells were washed once with 1 mL of stain buffer and spun down again as in step one. Cell pellets were resuspended in 1 mL of stain buffer and added to pre-labeled flow tubes with cell strainer caps (Corning Falcon). […]
GFP MFI was measured by flow cytometry 48 hours after LNP addition. T cells were isolated from whole blood using a negative isolation procedure (EasySep™ Human T Cell Isolation Kit, Stemcell Technologies). T cells were dosed with mRNA-LNPs 3 days after activation with 500 ng of encapsulated mRNA per 125,000 cells. The LNP were CT10 compositions with an N/P of 8. Transfection efficiency (upper graph) and MFI (lower graph) were measured by flow cytometry 48 h after LNP addition.

[5] = Table 1, formulated lipid nanoparticles, TNS assay, read-out: Exp. pKa
[6] = Table 6, GFP-encoded LNPs, CT10, N/P 8
[7] = Table 7, EPO mRNA LNPs, LM02, N/P 6

pKa [1, 5]	pKa ([1]; Table 5, read-out: pKa Exp.)	pKa ([1]; Table 8, read-out: Exp.pKa)	Diameter (Z. ave, nm) [2, 6] [nm]	Polydispersity Index (PDI) [2, 6]	Diameter (Z. ave, nm) [2, 7] [nm]	Polydispersity Index (PDI) [2, 7]	Encapsulation Efficiency (%) [3, 6] [%]	Encapsulation Efficiency (%) [3, 7] [%]	SMILES	transfection efficiency compared with MC3 ([4]; FIG. 1, eGFP mRNA LNP, CT10, N/P 10, 48 hours after treatment)	transfection efficiency compared with MC3 in various donors ([4]; FIG. 2, six donors, treated 7 days post activation, 48 hours)	viability of T cells compared to untreated cells ([4]; six-donor experiment, not shown)	amount of protein produced (MFI) in human T cells compared with MC3 [4]	amount of protein produced (MFIs) compared with MC3 [4]	protein expression (GFP MFI) compared with MC3 [4]
6.83	6.83	6.8	100.7	0.16	93.5	0.10	87.3	98.8	CCCCC/C=C\C/C=C\CCCCCCCC(=O)O[C@@H]1[C@@H](OC(=O)CCCCCCC/C=C\C/C=C\CCCCC)CO[C@@H]1COC(=O)CCCN(C)C (racemic) [PNI 121]	greater than MC3	greater than those containing clinically validated MC3	unaffected	better than MC3	–	–
5.88	–	5.88	74.1	0.11	70.9	0.04	93.2	94.4	CCCCC/C=C\C/C=C\CCCCCCCC(=O)O[C@@H]1[C@@H](OC(=O)CCCCCCC/C=C\C/C=C\CCCCC)CO[C@@H]1COC(=O)C1(C)CCN(C)C1 (mixture of isomers) [PNI 329]	–	–	–	better than MC3	better than MC3	higher levels of protein expression than MC3
6.6	–	6.6	–	–	86.9	0.13	–	88.2	CCCCC/C=C\C/C=C\CCCCCCCC(=O)O[C@@H]1[C@@H](OC(=O)CCCCCCC/C=C\C/C=C\CCCCC)CO[C@@H]1COC(=O)CCCN1CCCC1 (racemic) [PNI 539]	–	–	–	–	–	–
6.09	–	6.09	92.6	0.16	66.9	0.02	92.5	96.2	CCCCC/C=C\C/C=C\CCCCCCCC(=O)O[C@@H]1[C@@H](OC(=O)CCCCCCC/C=C\C/C=C\CCCCC)CO[C@@H]1COC(=O)C1CCN(C)C1 (mixture of isomers) [PNI 328]	–	–	–	better than MC3	–	higher levels of protein expression than MC3
